One molecule from patent US20240206484A1, “METHOD OF DEVELOPMENT OF SELECTIVE PROBIOTIC GROWTH PROMOTORS AND SELECTIVE PATHOGEN GROWTH INHIBITORS FROM KIMCHI FERMENTATION” (Hannip Inc., priority 2022, published 2024) can be followed below.

Structures are written as SMILES.

One experiment has as its system L. plantarum. Nature of the experiment: Impact of lactic acid on the effect of BKE-X1 or BKE-X2 on growth, colonies counted. Type of experiment: cell-based, Lactobacillus plantarum. Particulars: lactic acid to reduce pH to 3 or less; 48 hours at 30° C.; vs control. The procedure:
(§1) To MRS culture medium (1 mL) in a culture tube (15 mL), saline (9 mL), BKE-X1 or BKE-X2 (500 mg), and kimchi bacteria culture solution (select one of L. mesenteroides and L. plantarum) (0.5 mL) were added. The mixture was vortex stirred and cultured for 48 hours at 30° C. To MRS culture medium (1 mL) in another culture tube (15 mL), saline (9 mL), BKE-X1 or BKE-X2 (500 mg), kimchi bacteria culture solution (select one of L. mesenteroides and L. plantarum) (0.5 mL), and lactic acid (to reduce pH to 3 or less) were added. The mixture was vortex stirred and cultured for 48 hours at 30° C. To MRS culture medium (1 mL) in yet another culture tube (15 mL), saline (9 mL), kimchi bacteria culture solution (select one of L. mesenteroides and L. plantarum) (0.5 mL), and lactic acid (to reduce pH to 3 or less) were added. The mixture was vortex stirred and cultured for 48 hours at 30° C. As the control, to MRS culture medium (1 mL) in yet another culture tube (15 mL), saline (9 mL) and kimchi bacteria culture solution (select one of L. mesenteroides and L. plantarum) (0.5 mL) were added. The mixture was vortex stirred and cultured for 48 hours at 30° C. An aliquot (0.5 mL) was collected from each culture medium and serially diluted to 16,000× using saline solution. […] The colonies were counted and photographed, then compared side by side.

For the next experiment, the system named is L. mesenteroides. Described as above. Type of experiment: cell-based, Leuconostoc mesenteroides. Particulars: lactic acid to reduce pH to 3 or less; 48 hours at 30° C.; vs control. On the procedure:
as §1

In the case of `CC(O)C(=O)O` (centres unmarked) [lactic acid], in the experiment with L. plantarum, the “growth of L. plantarum, lactic acid alone” value is “negligibly promoting”. Besides, the “growth of L. mesenteroides, lactic acid alone” value with L. mesenteroides is “negligibly inhibit”.
